Test results: US9493447B2, “Optically active PDE10 inhibitor” (OMEROS CORPORATION, priority 2014, dated 2016)
Blank lines part the entries; values can stand above or below the compound they belong to.

Tests used:
[1] = target: PDE2A (Homo sapiens (Human), UniProt O00408); experiment: PDE selectivity SPA assay, PDE2A; format: biochemical; conditions: substrate 37 nM H-cGMP
Protocol: (§1) The PDE assay medium consisted of (final concentrations); 50 mM Tris-HCL, pH 7.5; 8.3 mM MgCl2; 1.7 mM EGTA; 0.5 mg/mL bovine serum albumin; and substrate (H-cAMP or H-cGMP). The BSA was lyophilized powder, essentially fatty acid free, ≧96% pure from Sigma (A6003).

[2] = target: PDE5A (Homo sapiens (Human), UniProt O76074); experiment: PDE selectivity SPA assay, PDE5A; format: biochemical; conditions: substrate 37 nM H-cGMP
Protocol: as §1

[3] = target: bovine PDE6 (Bos taurus, UniProt P11541+P23439); experiment: PDE selectivity assay, PDE6; format: biochemical
Sequence of bovine PDE6 (P11541 2-859 limits assumed): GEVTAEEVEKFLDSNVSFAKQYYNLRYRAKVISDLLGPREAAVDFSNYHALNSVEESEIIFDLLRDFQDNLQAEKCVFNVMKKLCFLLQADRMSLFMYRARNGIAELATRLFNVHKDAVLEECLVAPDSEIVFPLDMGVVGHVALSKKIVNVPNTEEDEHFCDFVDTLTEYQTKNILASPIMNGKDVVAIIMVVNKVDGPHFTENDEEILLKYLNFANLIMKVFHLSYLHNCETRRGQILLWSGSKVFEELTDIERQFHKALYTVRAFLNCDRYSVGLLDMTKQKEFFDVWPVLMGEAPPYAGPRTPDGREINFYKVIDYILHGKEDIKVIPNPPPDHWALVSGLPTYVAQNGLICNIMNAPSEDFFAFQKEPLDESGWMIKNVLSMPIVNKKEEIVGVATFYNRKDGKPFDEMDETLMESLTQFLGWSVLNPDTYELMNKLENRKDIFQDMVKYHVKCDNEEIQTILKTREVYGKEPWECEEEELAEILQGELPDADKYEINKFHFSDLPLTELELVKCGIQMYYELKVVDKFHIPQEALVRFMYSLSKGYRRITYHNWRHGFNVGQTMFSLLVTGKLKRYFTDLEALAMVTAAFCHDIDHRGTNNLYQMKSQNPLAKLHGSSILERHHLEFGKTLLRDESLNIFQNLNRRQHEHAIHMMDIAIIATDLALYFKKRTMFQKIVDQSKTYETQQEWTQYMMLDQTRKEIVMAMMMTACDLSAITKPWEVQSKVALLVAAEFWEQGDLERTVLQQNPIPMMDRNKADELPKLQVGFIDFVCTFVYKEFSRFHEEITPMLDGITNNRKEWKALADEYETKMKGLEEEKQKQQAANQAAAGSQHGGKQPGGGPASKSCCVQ
Sequence of bovine PDE6 (P23439 2-853 limits assumed): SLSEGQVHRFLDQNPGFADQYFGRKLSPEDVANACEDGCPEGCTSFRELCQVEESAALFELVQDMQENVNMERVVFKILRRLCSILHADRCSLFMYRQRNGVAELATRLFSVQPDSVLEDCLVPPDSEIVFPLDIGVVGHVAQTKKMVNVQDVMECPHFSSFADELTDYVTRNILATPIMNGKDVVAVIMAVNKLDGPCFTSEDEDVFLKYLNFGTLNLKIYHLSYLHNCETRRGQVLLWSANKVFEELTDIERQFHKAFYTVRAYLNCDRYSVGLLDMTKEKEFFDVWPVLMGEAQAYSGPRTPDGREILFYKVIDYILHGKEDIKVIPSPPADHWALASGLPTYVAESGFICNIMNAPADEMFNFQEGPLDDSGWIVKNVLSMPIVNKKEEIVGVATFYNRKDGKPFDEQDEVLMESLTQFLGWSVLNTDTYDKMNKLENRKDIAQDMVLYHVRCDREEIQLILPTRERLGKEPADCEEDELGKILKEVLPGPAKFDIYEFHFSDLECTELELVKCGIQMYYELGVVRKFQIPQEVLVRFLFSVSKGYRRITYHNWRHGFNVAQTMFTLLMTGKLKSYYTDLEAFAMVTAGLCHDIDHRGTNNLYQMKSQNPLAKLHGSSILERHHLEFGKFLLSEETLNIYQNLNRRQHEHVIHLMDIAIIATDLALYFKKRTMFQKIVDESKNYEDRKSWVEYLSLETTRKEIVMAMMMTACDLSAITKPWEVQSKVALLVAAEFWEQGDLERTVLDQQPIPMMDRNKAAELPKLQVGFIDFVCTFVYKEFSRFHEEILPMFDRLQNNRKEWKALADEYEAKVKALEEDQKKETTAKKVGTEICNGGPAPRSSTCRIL
Protocol: as §1

[4] = target: PDE10A2 (Homo sapiens (Human), UniProt Q9Y233); experiment: PDE selectivity SPA assay, PDE10A2; format: biochemical; conditions: Table 1 selectivity profile
Sequence of PDE10A2 (Q9Y233 267-1055): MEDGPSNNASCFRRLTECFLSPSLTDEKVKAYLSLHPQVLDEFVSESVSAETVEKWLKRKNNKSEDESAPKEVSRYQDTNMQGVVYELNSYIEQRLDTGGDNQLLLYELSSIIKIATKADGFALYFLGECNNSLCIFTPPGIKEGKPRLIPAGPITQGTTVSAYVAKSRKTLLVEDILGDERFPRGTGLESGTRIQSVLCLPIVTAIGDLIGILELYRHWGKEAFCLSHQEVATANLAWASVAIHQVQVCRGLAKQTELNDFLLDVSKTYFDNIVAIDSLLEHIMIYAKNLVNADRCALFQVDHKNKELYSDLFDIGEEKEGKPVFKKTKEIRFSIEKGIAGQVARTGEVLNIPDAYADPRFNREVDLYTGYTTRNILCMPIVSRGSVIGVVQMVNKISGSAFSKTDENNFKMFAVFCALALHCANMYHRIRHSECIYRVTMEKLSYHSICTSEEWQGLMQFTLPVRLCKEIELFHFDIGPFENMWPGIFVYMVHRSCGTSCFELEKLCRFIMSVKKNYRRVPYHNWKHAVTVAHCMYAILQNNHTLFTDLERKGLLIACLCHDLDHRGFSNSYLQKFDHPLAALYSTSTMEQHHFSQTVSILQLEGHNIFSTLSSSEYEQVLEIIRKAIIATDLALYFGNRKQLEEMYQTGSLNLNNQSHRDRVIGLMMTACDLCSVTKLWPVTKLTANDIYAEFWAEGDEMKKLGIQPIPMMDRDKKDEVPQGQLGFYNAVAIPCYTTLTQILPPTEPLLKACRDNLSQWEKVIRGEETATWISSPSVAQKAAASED
Protocol: as §1

[5] = target: Human PDE10 (Homo sapiens (Human), UniProt Q9Y233); experiment: Inhibition of Human PDE10 (Example 13, SPA assay); format: biochemical; conditions: substrate 125 nM H-cGMP; all three compounds tested in the same experiment
Sequence of Human PDE10 (Q9Y233 267-1055): as above
Protocol: as §1

[6] = system: PDE10; conditions: from Soderling and Beavo 2000; read-out: IC50 (50% inhibitory concentration) PDE10; cited from earlier work

Sequence of PDE2A (O00408 whole entry): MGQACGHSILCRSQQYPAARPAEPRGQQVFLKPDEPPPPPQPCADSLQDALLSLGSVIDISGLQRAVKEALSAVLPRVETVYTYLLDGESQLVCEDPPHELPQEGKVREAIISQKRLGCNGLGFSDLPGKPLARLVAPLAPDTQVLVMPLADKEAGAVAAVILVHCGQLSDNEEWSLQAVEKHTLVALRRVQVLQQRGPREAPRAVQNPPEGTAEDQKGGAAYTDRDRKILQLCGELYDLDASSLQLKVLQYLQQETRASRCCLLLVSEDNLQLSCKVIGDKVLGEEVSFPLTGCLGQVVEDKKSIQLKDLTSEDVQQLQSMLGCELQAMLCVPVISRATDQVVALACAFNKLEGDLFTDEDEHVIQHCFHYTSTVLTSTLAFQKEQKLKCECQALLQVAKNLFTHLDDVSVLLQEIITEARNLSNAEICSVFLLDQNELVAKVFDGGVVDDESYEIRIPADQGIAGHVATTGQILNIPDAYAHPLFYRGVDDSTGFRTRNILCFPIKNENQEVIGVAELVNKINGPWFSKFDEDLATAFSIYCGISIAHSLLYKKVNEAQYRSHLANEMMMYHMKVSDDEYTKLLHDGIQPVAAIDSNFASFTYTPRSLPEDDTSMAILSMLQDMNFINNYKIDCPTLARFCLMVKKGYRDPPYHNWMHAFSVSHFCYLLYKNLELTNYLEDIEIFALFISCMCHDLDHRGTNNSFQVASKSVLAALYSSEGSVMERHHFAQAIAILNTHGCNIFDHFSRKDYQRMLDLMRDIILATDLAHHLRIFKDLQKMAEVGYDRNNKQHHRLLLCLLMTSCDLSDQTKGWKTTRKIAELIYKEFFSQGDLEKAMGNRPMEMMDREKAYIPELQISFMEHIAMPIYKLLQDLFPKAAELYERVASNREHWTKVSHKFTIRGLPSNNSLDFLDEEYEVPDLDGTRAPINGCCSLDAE

IC50 [1]: 545 nM | IC50 [2]: 5740 nM | IC50 [3]: > 3000 nM | IC50 [4]: 0.62 nM | IC50 [5]: 0.62 nM
Compound: CCOC(C(=O)c1ccc(-c2cc(OC)c(Cl)c(OC)c2)o1)c1ccc(-c2nnc(C)s2)cc1 (racemic) [Compound 1001, 1-(5-(4-chloro-3,5-dimethoxyphenyl)furan-2-yl)-2-ethoxy-2-(4-(5-methyl-1,3,4-thiadiazol-2-yl)phenyl)ethanone]

Compound: CC(C)Cn1c(=O)n(C)c(=O)c2[nH]cnc21 [IBMX]
IC50 [6]: 2600 nM

IC50 [5]: 5.8 nM
Compound: CCO[C@@H](C(=O)c1ccc(-c2cc(OC)c(Cl)c(OC)c2)o1)c1ccc(-c2nnc(C)s2)cc1 [Compound 3001]

IC50 [5]: 0.44 nM
Compound: CCO[C@H](C(=O)c1ccc(-c2cc(OC)c(Cl)c(OC)c2)o1)c1ccc(-c2nnc(C)s2)cc1 [Compound 2001, (S)-1-(5-(4-chloro-3,5-dimethoxyphenyl)furan-2-yl)-2-ethoxy-2-(4-(5-methyl-1,3,4-thiadiazol-2-yl)phenyl)ethanone]
